# Experimental data reported in US20090227671A1, “Prevention and treatment of atherosclerosis with lithospermate B” (Industry-Academic Cooperation Foundation, priority 2005, published 2009).
# Assays:
# Type in all cases: cell-based, Sprague-Dawley rats
# Akt = assay: Western blot of Akt phosphorylation in VSMC induced by PDGF-BB; settings: for decrease of Akt phosphorylation: 30 μM LAB, 20 mM NAC, 40 μM LY294002, 1 h, then PDGF-BB 10 min, FIG. 4C
# Protocol: (§1) VSMC was washed with PBS and then dissolved in lysis buffer (25 mM Tris HCl, pH 7.4, 25 mM NaCl, 25 mM NaF, 25 mM sodium pyrophosphate, 1 mM sodium vanadate, 2.5 mM EDTA, 2.5 mM EGTA, 0.05% (wt/vol) Triton X-100, 0.5% (wt/vol) SDS, 0.5% (wt/vol) deoxycholate, 0.5% (wt/vol) Nonidet P-40, […], and 1 mM PMSF). The cells were collected and centrifuged at 13,000 rpm for 15 min and the protein concentration of the resulting supernatant was measured by Bradford assay. The proteins were denatured and were subjected to SDS-PAGE and then blotted onto nitrocellulose membranes. The membranes were placed in 5% (w/v) non-fat dry milk in TBS with 0.1% Tween20 (TBS-T) and then placed at room temperature for 3 hrs. The blots were placed at 4° C. along with anti-ERK1/2 or anti-Akt antibodies (Cell signaling Technologh, Berely. Mass., USA) for 16 hrs. The membranes were washed 4 times with TBS-T, added with anti-rabbit IgG antibody conjugated with horseradish peroxidase (1:2,000 diluent) and then placed at room temperature for 1 hr. The immunoreactive bands detected by ECL reagents were developed by Hyperfilm-ECL (Amersham Life Science, Little Chalfont, UK). The bands showing positive responses were quantitated by densitometry and then compared with that of control.
# (§2) In FIG. 1B, it is shown that both U0126 (20 μM) and LY294002 (40 μM) inhibited activities of LDH and MTT induced by PDGF-BB. As a way to investigate the signal transduction pathway involved in VSMC proliferation induced by PDGF-BB, an experiment was conducted to examine whether PDGF-BB activates a relatively lower signal transduction pathway such as ERK1/2 and Akt.
# ERK1/2 = assay: Western blot of ERK1/2 phosphorylation in VSMC induced by PDGF-BB
# Protocol: as §1, §2
# [1] = test system: vascular smooth muscle cells; assay: VSMC proliferation induced by PDGF-BB (LDH and MTT assays); settings: data not shown
# Text: Vascular smooth muscle cells ('VSMC' hereinafter) were separated from thoracic aorta of a Sprague-Dawley weighted about 100-150 g by using collagenase digestion method and then cultured them according to the method disclosed in previous studies [[…], et al. Role of p44/p42 MAP kinase in the age-dependent increase in vascular smooth muscle cell proliferation and neointimal formation. Arterioscler Thromb Vasc Biol. Feb. 1 2003; 23(2):204-210.; Hamaguchi A, Kim S, Izumi Y, et al. Contribution of extracellular signal-regulated kinase to angiotensin II-induced transforming growth factor-beta1 expression in vascular smooth muscle cells. Hypertension. July 1999; 34(1):126-131]. […] The VSMC was treated in a culture medium not containing serum for 24 hrs prior to treatment with PDGF-BB, and the reaction according to the presence or absence of PDGF-BB was analyzed after pretreating with LAB or other reagents. […] The cells were then washed twice with PBS, lysed by using 0.5% Triton-X100, and then the activity of lactate dehydronase (LDH) was measured by using CytoTox-ONETM assay kit (Promega, Madison, Wis., USA) with fluorescence at […]. […]
# [2] = test system: vascular smooth muscle cells; assay: VSMC migration induced by PDGF-BB (modified Boyden chamber); settings: PDGF-BB 10 ng/mL as chemoattractant, 16 hrs
# Protocol: The migration of VSMC with 8 μm of pores was measured by using modified Boyden chamber method [Brown C, Pan X, Hassid A. Nitric oxide and C-type atrial natriuretic peptide stimulate primary aortic smooth muscle cell migration via a cGMP-dependent mechanism: relationship to microfilament dissociation and altered cell morphology. Circ Res. Apr. 2 1999; 84(6):655-667], which utilizes collagen-coated transwell tissue culture inserts consisting of polycarbonate membrane. 3.0×10^6 cells/mL of the above vascular smooth muscle cells were allowed to float in a culture medium without serum, treated with LAB with various concentrations and then cultured at 37° C. for 30 min. Then, the cells were treated with either 0.5 mL DMEM without serum or 0.5 mL DMEM without serum along with PDGF-BB 10 ng/mL and then placed in the lower part of a chamber. 100 μL of the folating materials of the above cells (final 3.0×10^5 cells/well) was added to the upper part of the chamber and cultured at 37° C. for 16 hrs. The cells were then fixed, dyed with hematoxylin, and filters were dried and developed.
# It is known that […] plays an important role in proliferation of VSMC as well as development of atherosclerosis. To investigate whether LAB decreases the migration of VSMC induced by PDGF-BB, an experiment was performed as follows by using the aforementioned modified Boyden chamber method.
# [3] = test system: intracellular reactive oxygen species; assay: Intracellular reactive oxygen species in VSMC (DCF fluorescence); settings: PDGF-BB 10 ng/mL vs control
# Protocol: The amount of reactive oxygen species in cells was measured as described in the previous report [Hamaguchi A, Kim S, Izumi Y, et al. Contribution of extracellular signal-regulated kinase to angiotensin II-induced transforming growth factor-beta1 expression in vascular smooth muscle cells. Hypertension. July 1999; 34(1):126-131]. VSMC was cultured in a culture medium without serum for 24 hrs to stop cell proliferation and then pretreated with LAB with various concentrations of 1, 5, 10, 20, 30 μM for 1 hr. The cells were treated with either 10 ng/mL of PDGF-BB for 10 min or with 100 μM H2O2 for 1 min and then cultured in the presence of 5-(and-6)-chloromethyl-2′,7′-dichlorohydrofluorescein diacetate(CM-H2DCF-DA: Molecular Probes Inc., Eurogene, Oreg., USA) in the dark room for 10 min and cultured cells and generation of reactive oxygen species were observed by using fluorescent microscope.
# First, the amount of intracellular reactive oxygen species generated by PDGF-BB was measured by using peroxide-sensitive fluorophore DCF. As shown in FIG. 3A (B-1), the amount of intracellular reactive oxygen species generated by PDGF-BB evaluated with DCF fluorescence was 2.7 times greater. […] In this experiment, LAB was treated with PDGF-BB for 10 min. When LAB was pretreated, the amount of DCF fluorescence was decreased as compared to when it was treated only with PDGF-BB [FIG. 3A(A)]. […] Further, LAB decreased the activity of hydrogen peroxide, which increases the generation of intracellular reactive oxygen species, in proportion to its concentration (FIG. 3A(C)).
compound,measurement,setting,value
"O=c1cc(N2CCOCC2)oc2c(-c3ccccc3)cccc12 [LY294002, (2-(4-morpholinyl)-8-phenyl)-4H-1-benzopyran-4-one, reference compound]",decrease of Akt phosphorylation,Akt,3.5 folds
"CC(=O)N[C@@H](CS)C(=O)O [NAC, N-acetylcysteine, reference compound]",decrease of ERK1/2 phosphorylation,"ERK1/2; 30 μM LAB, 20 mM NAC, 1 h, then PDGF-BB 10 min, FIG. 5C",0.6 fold
same,decrease of Akt phosphorylation,Akt,3.4 folds
"Oc1ccc(-c2nc(-c3ccncc3)c(-c3ccc(F)cc3)[nH]2)cc1 [SB202190, reference compound]",inhibitory activity against VSMC proliferation induced by PDGF-BB,[1],no distinct inhibitory activity
"PDGF-BB: platelet-derived growth factor (Sigma-Aldrich), stimulus of VSMC proliferation and migration [reference compound]",increase of VSMC migration,[2],about 60%
same,"amount of intracellular reactive oxygen species (DCF fluorescence), increase",[3],2.7 times
same,increase of ERK1/2 activity,"ERK1/2; treated with PDGF-BB 10 ng/mL, FIG. 5A",11 folds
same,increase of Akt activity,"Akt; treated with PDGF-BB 10 ng/mL, FIG. 4A",7 folds
